For one data set, the system named is RGC-5 nerve cells. Briefly: chemical ischemia model (IAA) in RGC-5 cells. The format is cell-based. To be noted: RGC-5, 30 μM IAA 2 hr, Baicalein 5-25 μM, also added 2 hrs after insult. How it is done: FIG. 5D—RGC-5 nerve cells were treated with 30 μM iodoacetic acid for 2 hr in the presence or absence of 5-25 μM Baicalein. In some experiments, Baicalein was added 2 hr after the ischemic event. Cell survival (%) was measured after 24 hr by the MTT assay. Baicalein added before (□) or 2 hr after (●) ischemia. […] When these cells are starved for glucose, there is approximately 70% maximal survival in the presence of NGF. Baicalein promotes over 80% survival (FIG. 5C).

The subject of data set [1] is embolic strokes in rabbits. Briefly: rabbit small clot embolic stroke model (RSCEM). It is filed as in vivo. The source says: The ability of polyphenol analogs to treat, prevent and/or mitigate one or more symptoms of stroke can also be evaluated in in vivo assays. Such assays are known in the art and find use. One applicable in vivo screening assay is the rabbit clot embolic stroke model, discussed, e.g., in Lapchak, et al., Stroke (2002) 33(9):2279-84 and Lapchak, Exp Neurol. (2007) 205(2):407-13. The rabbit small clot embolic stroke model (RSCEM) and rabbit large clot embolic stroke model (RLCEM) can be used to determine the potential neuroprotective properties and safety profile of test polyphenol analogs after an embolic stroke. Rabbits are embolized by injecting small blood clots (RSCEM) or large blood clots (RLCEM) into the cerebral circulation. Behavioral analysis is conducted 24 hours later, allowing for determination of the effective stroke dose (ES50) or clot amount (milligrams) that produces severe neurological deficits in 50% of rabbits. A drug is considered neuroprotective if it increases the ES50 compared with the vehicle-treated control group.
Either vehicle or bolus injections of chlorogenic acid were administered intravenously over 1 minute starting 5 minutes following embolization using a suspension of small-sized blood clots. In this series of studies, CGA was administered at 50 mg/kg. Behavioral analysis was conducted at 24 hours following treatment, which allowed for the construction of quantal dose-response analysis curves. […] For the superimposed graphs, normal animals are plotted on the y-axis at 0% and abnormal animals are plotted at 100%. […] Moreover, CGA increased the P50 value (the clot dose that produces abnormality in 50% of a treatment group) compared to vehicle control. For a detailed discussion of the methods used to fit the quantal data to a sigmoidal curve, see Zivin and Waud. The pharmacology of chlorogenic acid in the rabbit small clot embolic stroke model (RSCEM) has been published (Lapchak, Exp Neurol. 2007 205(2):407-13). In the manuscript, it is shown that CGA has a therapeutic window of 60 minutes in the RSCEM. FIG. 2 presents the therapeutic window data.
Using the RSCEM assay described above for CGA, the effects of Fisetin (50 mg/kg) on behavioral outcome measured 24 hours following embolization is tested.

Data set [2] concerns primary mouse cortical neurons. Briefly: primary cortical cell glutamate excitotoxicity assay. It is filed as cell-based. To be noted: E14 mouse primary cortical neurons, 10 μM glutamate 10 min, Baicalein 0.2-5 μM, MTT 24 hr. How it is done: FIG. 5B—excitotoxicity assay was done with E14 mouse primary cortical neuron cultures. After 11 days of culture, cells were exposed to 10 μM glutamate for 10 min, followed by the addition of varying concentrations of Baicalein (0.2-5 μM). Cell viability was determined 24 hr later with a standard MTT assay.
Excitotoxicity cell assay: Primary cultures of cortical neurons that die due to excitotoxicity were prepared as described previously. Briefly, BALB/c mouse embryo cortices were minced and treated with 0.1% trypsin for 20 min. After centrifugation, the cells are resuspended in 827 Neurobasal medium (Invitrogen) plus 10% fetal calf serum and are dissociated by repeated pipetting through a 1 mL blue Eppendorf pipette tip. Then the cells are plated at 1×10^5 cells per well in 96-well poly-L-lysine and laminin-coated microtiter plates (Becton Dickinson, Bedford, Mass., USA) in 827 Neurobasal plus 10% fetal calf serum and 20% glial growth-conditioned medium. Two days later the medium is aspirated and replaced by serum-free 827 Neurobasal medium plus 10 μg/mL cytosine arabinoside. The cultures are used without media change 11 days after plating and are essentially free of astrocytes. They are exposed to 10 μM glutamate followed by varying concentrations of the compounds. Cell viability is determined 24 h later using […]. […]

For data set [3], the system named is embolic strokes in rabbits. To be noted: RSCEM, as published in the manuscript; cited from earlier work.
The next data set deals with mice. To be noted: oral dose; cited from earlier work.
For data set [4] the following is noted: Shia, et al. 2009; cited from earlier work.

Consider `O=c1cc(-c2ccccc2)oc2cc(O)c(O)c(O)c12` [Baicalein, 5,6,7-trihydroxyflavone], for which, in the data set with RGC-5 nerve cells, the “cell death in chemical ischemia model” value was “prevents cell death”. Also, the “behavior when administered 1 hour following embolization” value in data set [1] (1 hour following embolization) is “effective at improving behavior”. Besides, the “behavior when administered 3 hours following embolization” value in data set [1] (3 hours following embolization) is “neither improve behavior”. Further, the cells rescued entry in data set [2] is on record as “about 35%”. Moreover, the therapeutic window in data set [3] is ≥ 60 min.

For `O=c1c(O)c(-c2ccc(O)c(O)c2)oc2cc(O)ccc12` [Fisetin, 3,7,3′,4′-tetrahydroxy flavone], the memory result in the data set on mice is “potentiates memory equally as well as rolipram”. The bioavailability entry in data set [4] is on record as “poor”.

Source of the values: patent publication US9744164B2, “Neuroprotective polyphenol analogs” (Salk Institute for Biological Studies, priority 2011, dated 2017).
